Earlier results on two compounds are cited in US10703699B2, “Solubilization of pterostilbene and resveratrol for aqueous beverages” (Ironstone Separations, Inc., priority 2013, dated 2020).

The conditions of series [1]: animal studies.

What is called bioavailability is the share of a dose that reaches the circulation, judged against a reference dose that is usually intravenous. Turning to `Oc1ccc(/C=C/c2cc(O)cc(O)c2)cc1` [Resveratrol, 3,5,4′-trihydroxy-trans-stilbene], in series [1], the bioavailability is 20%. As to “trans-3,5-dimethoxy-4-hydroxystilbene [Pterostilbene]”, the “Solubility in aqueous media” value is given as “very low”. In series [1], the bioavailability is 80%.
